# Experimental data: ChEMBL document CHEMBL3881525, “Analogs of dehydrophenylahistins and their therapeutic use” (2007)
# The source made the active and inactive calls. The calls are words filed in the database; no cut-off is given here.
# Tests used:
# [1] = Cytotoxicity against human PC3 cells assessed as reduction in cell viability measured after 48 hrs by resazurin dye-based fluorometric analysis; assay type: functional; details: PC-3, 48 h
# [2] = Antiproliferative activity against taxol-sensitive human MES-SA cells […]; assay type: functional, cell-based
# Candida albicans [3] = experiment: Antifungal activity against Candida albicans 90028 measured after 48 hrs by broth dilution method; assay type: functional; details: Candida albicans, 90028, 48 h
# [4] = Cytotoxicity against mouse B16F10 cells assessed as reduction in cell viability measured after 48 hrs by resazurin dye-based fluorometric analysis relative to control; assay type: functional, B16-F10
# [5] = Cytotoxicity against human HT-29 cells assessed as reduction in cell viability measured after 48 hrs by resazurin dye-based fluorometric analysis relative to control; assay type: functional
# HT-29 = experiment: Ratio of IC50 for human CCD-27sk cells to IC50 for human HT-29 cells
# B16-F10 = experiment: Ratio of IC50 for human CCD-27sk cells to IC50 for mouse B16F10 cells
# [6] = Cytotoxicity against human NCI-H292 cells assessed as reduction in cell viability measured after 48 hrs by resazurin dye-based fluorometric analysis; assay type: functional; details: NCI-H292, 48 h
# Candida albicans [7] = experiment: Antifungal activity against Candida albicans ATCC 10231 measured after 48 hrs by broth dilution method; assay type: functional; details: ATCC 10231, 48 h
# [8] = Cytotoxicity against human MDA-MB-231 cells assessed as reduction in cell viability measured after 48 hrs by resazurin dye-based fluorometric analysis; assay type: functional; details: MDA-MB-231, 48 h
# HL-60 = experiment: Ratio of IC50 for human mitoxantrone-sensitive HL60 cells to IC50 for human mitoxantrone-resistant HL60/MX2 cells; assay type: functional
# MES-SA = experiment: Ratio of IC50 for taxol-sensitive human […] to IC50 for taxol-sensitive human […] pretreated with p-gp inhibitor cyclosporinA followed by compound addition; assay type: functional
# Aspergillus fumigatus [9] = experiment: Antifungal activity against Aspergillus fumigatus isolate 2 measured after 48 hrs by broth dilution method; assay type: functional; details: isolate 2, 48 h
# [10] = Cytotoxicity against human OVCAR3 cells assessed as reduction in cell viability measured after 48 hrs by resazurin dye-based fluorometric analysis; assay type: functional; details: OVCAR-3, 48 h
# [11] = Cytotoxicity against human CCD-27Sk cells assessed as reduction in cell viability measured after 48 hrs by resazurin dye-based fluorometric analysis
# [12] = Cytotoxicity against human OVCAR3 cells assessed as reduction in cell viability measured after 48 hrs by resazurin dye-based fluorometric analysis relative to control; assay type: functional, OVCAR-3
# HUVEC = experiment: Induction of monolayer permeability in HUVEC assessed as colchicin transport at 2 uM measured up to 1 hr; assay type: functional, cell-based; details: Homo sapiens
# NCI-H292 = experiment: Ratio of IC50 for human CCD-27sk cells to IC50 for human NCI-H292 cells
# Aspergillus fumigatus [13] = experiment: Antifungal activity against Aspergillus fumigatus isolate 1 measured after 48 hrs by broth dilution method; assay type: functional; details: isolate 1, 48 h
# MES-SA/Dx5 = experiment: Ratio of IC50 for taxol-resistant human MES-SA/Dx5 cells expressing MDR1 mRNA and P-gp to IC50 for taxol-resistant human MES-SA/Dx5 cells expressing MDR1 mRNA and P-gp pretreated with p-gp inhibitor cyclosporinA followed by compound addition; assay type: functional
# [14] = Cytotoxicity against human PC3 cells assessed as reduction in cell viability measured after 48 hrs by resazurin dye-based fluorometric analysis relative to control; assay type: functional, PC-3; design: concentration or dose not given beside the values
# MCF7 [15] = experiment: Potentiation of taxotere-induced antitumor activity against human MCF7 cells xenografted in nude mouse assessed as tumor growth inhibition at 7.5 mg/kg, ip qd for 4 days measured on day 7; assay type: functional, organism-based
# [16] = Antiproliferative activity against taxol-resistant human MES-SA/Dx5 cells expressing MDR1 mRNA and P-gp; assay type: functional, cell-based
# [17] = Antiproliferative activity against human mitoxantrone-sensitive HL60 cells; assay type: functional, cell-based; details: HL-60
# Aspergillus fumigatus [18] = experiment: Fungicidal activity against Aspergillus fumigatus isolate 2 measured after 48 hrs by broth dilution method; assay type: functional; details: isolate 2, 48 h
# [19] = Antitumor activity against human HT-29 cells xenografted in nude mouse assessed as tumor growth inhibition at 30 mg/kg, ip administered every third day for 5 days in presence of CPT-11 relative to control; assay type: functional; details: HT-29, ip, 120 h, read-out: TGI
# Jurkat = experiment: Induction of apoptosis in human Jurkat cells assessed as caspase3 activation; assay type: functional, cell-based
# [20] = Antiproliferative activity against taxol-sensitive human MES-SA cells pretreated with p-gp inhibitor cyclosporinA followed by compound addition; assay type: functional, cell-based
# [21] = Cytotoxicity against human CCD-27Sk cells assessed as reduction in cell viability measured after 48 hrs by resazurin dye-based fluorometric analysis relative to control; details: read-out: INH
# [22] = Cytotoxicity against mouse B16F10 cells assessed as reduction in cell viability measured after 48 hrs by resazurin dye-based fluorometric analysis; assay type: functional; details: B16-F10, 48 h
# [23] = Antiproliferative activity against taxol-resistant human MES-SA/Dx5 cells expressing MDR1 mRNA and P-gp pretreated with p-gp inhibitor cyclosporinA followed by compound addition; assay type: functional, cell-based
# [24] = Antiproliferative activity against human mitoxantrone-resistant HL60/MX2 cells; assay type: functional, cell-based; details: HL-60
# [25] = Cytotoxicity against human HT-29 cells assessed as reduction in cell viability measured after 48 hrs by resazurin dye-based fluorometric analysis; assay type: functional; details: Homo sapiens, HT-29, 48 h
# [26] = Antifungal activity against Candida glabrata measured after 48 hrs by broth dilution method; assay type: functional; details: Nakaseomyces glabratus
# [27] = Cytotoxicity against human Jurkat cells; assay type: functional, cell-based
# [28] = Cytotoxicity against human NCI-H292 cells assessed as reduction in cell viability measured after 48 hrs by resazurin dye-based fluorometric analysis relative to control; assay type: functional
# MDA-MB-231 = experiment: Ratio of IC50 for human CCD-27sk cells to IC50 for human MDA-MB-231 cells
# PC-3 = experiment: Ratio of IC50 for human CCD-27sk cells to IC50 for human PC3 cells
# [29] = Antitumor activity against human HT-29 cells xenografted in nude mouse assessed as tumor growth inhibition at 100 mg/kg, ip administered thrice weekly relative to control; assay type: functional; details: HT-29, ip, read-out: TGI
# MCF7 [30] = experiment: Antimitotic activity in human MCF7 cells assessed as mitotic index measured after 20 hrs by DAPI-staining based fluorescence microscopic analysis; assay type: functional, cell-based
# Tubulin (Homo sapiens) [31] = molecular target: T1, Tubulin (Homo sapiens) (UniProt P68371+Q9H4B7+P0DPH7+P68366+Q13509+Q71U36+P04350+Q3ZCM7+P07437+P68363+Q9BQE3+Q6PEY2+Q13885+Q9BVA1+Q9BUF5); experiment: Time required for induction of microtubule dynamic instability in human MCF7 cells at IC25 for mitotic block measured after 20 hrs by immunofluorescence analysis; assay type: cell-based
# MCF7 [32] = experiment: Antimitotic activity in human MCF7 cells assessed as microtubule polymer at twice mitotic block IC50 measured after 20 hrs by immunofluorescence analysis relative to control; assay type: functional, cell-based
# Tubulin (Homo sapiens) [33] = molecular target: T1, Tubulin (Homo sapiens); experiment: Induction of microtubule instability in human MCF7 cells assessed as time spent for attenuation at IC25 for mitotic block measured after 20 hrs by immunofluorescence analysis; assay type: cell-based
# MCF7 [34] = experiment: (§1) Antimitotic activity in human MCF7 cells assessed as bipolar cells with uncompressed chromosomes at mitotic block IC50 measured after 20 hrs by immunofluorescence analysis relative to control; assay type: functional
# Tubulin (Homo sapiens) [35] = molecular target: T1, Tubulin (Homo sapiens); experiment: Induction of microtubule instability in human MCF7 cells assessed as time spent for growth at IC50 for mitotic block measured after 20 hrs by immunofluorescence analysis; assay type: cell-based
# Tubulin (Homo sapiens) [36] = molecular target: T1, Tubulin (Homo sapiens); experiment: Induction of microtubule instability in human MCF7 cells assessed as time spent for shortening at IC50 for mitotic block measured after 20 hrs by immunofluorescence analysis; assay type: cell-based
# Tubulin (Homo sapiens) [37] = molecular target: T1, Tubulin (Homo sapiens); experiment: Induction of microtubule instability in human MCF7 cells assessed as time spent for shortening at IC25 for mitotic block measured after 20 hrs by immunofluorescence analysis; assay type: cell-based
# Tubulin (Bos taurus) = Tubulin (Bos taurus) (UniProt Q6B856+Q862L2+Q862F3); details: 10 uM
# Description: Inhibition of [3H]CLC binding to bovine brain tubulin at 10 uM measured after 120 mins in presence of GTP by scintillation counting method
# Tubulin (Homo sapiens) [38] = molecular target: T1, Tubulin (Homo sapiens); experiment: Induction of microtubule instability in human MCF7 cells assessed as catastrophy frequency at IC50 for mitotic block measured after 20 hrs by immunofluorescence analysis; assay type: cell-based
# Tubulin (Homo sapiens) [39] = molecular target: T1, Tubulin (Homo sapiens); experiment: Time required for induction of microtubule dynamic instability in human MCF7 cells at IC50 for mitotic block measured after 20 hrs by immunofluorescence analysis; assay type: cell-based
# Tubulin (Homo sapiens) [40] = molecular target: T1, Tubulin (Homo sapiens); experiment: Induction of microtubule instability in human MCF7 cells assessed as rescue frequency at IC50 for mitotic block measured after 20 hrs by immunofluorescence analysis; assay type: cell-based
# Tubulin (Homo sapiens) [41] = molecular target: T1, Tubulin (Homo sapiens); experiment: Induction of microtubule instability in human MCF7 cells assessed as catastrophy frequency at IC25 for mitotic block measured after 20 hrs by immunofluorescence analysis; assay type: cell-based
# Tubulin (Homo sapiens) [42] = molecular target: T1, Tubulin (Homo sapiens); experiment: Induction of microtubule instability in human MCF7 cells assessed as time spent for growth at IC25 for mitotic block measured after 20 hrs by immunofluorescence analysis; assay type: cell-based
# Tubulin (Homo sapiens) [43] = molecular target: T1, Tubulin (Homo sapiens); experiment: Induction of microtubule instability in human MCF7 cells assessed as rescue frequency at IC25 for mitotic block measured after 20 hrs by immunofluorescence analysis; assay type: cell-based
# MCF7 [44] = experiment: Antimitotic activity in human MCF7 cells assessed as decrease in microtubule polymer formation measured after 20 hrs by immunofluorescence analysis relative to control; assay type: functional, cell-based
# Tubulin (Homo sapiens) [45] = molecular target: T1, Tubulin (Homo sapiens); experiment: Induction of microtubule instability in human MCF7 cells assessed as time spent for attenuation at IC50 for mitotic block measured after 20 hrs by immunofluorescence analysis; assay type: cell-based
# [46] = as §1; assay type: functional
smiles,measurement,setting,value
CC(C)(C)c1[nH]cnc1/C=C1\NC(=O)C(Cc2ccccc2)NC1=O (configuration not stated),EC50,[1],174 nM
same,EC50,[2],122 to 144 nM
same,MIC,Candida albicans [3],> 32 µg/mL
same,inhibition (INH),[4],74%
same,Activity,[5],88%
same,Ratio IC50,HT-29,>20 - 100
same,Ratio IC50,B16-F10,>20 - 100
same,EC50,[6],384 nM
same,MIC,Candida albicans [7],> 32 µg/mL
same,EC50,[8],387 nM
same,Ratio IC50,HL-60,0.69
same,Ratio IC50,MES-SA,1.3
same,MIC,Aspergillus fumigatus [9],< 0.03 µg/mL
same,EC50,[10],> 20 µM
same,EC50,[11],> 20 µM
same,inhibition (INH),[12],37%
same,Activity,HUVEC,Active
same,Ratio IC50,NCI-H292,>20 - 100
same,MIC,Aspergillus fumigatus [13],> 16 µg/mL
same,Ratio IC50,MES-SA/Dx5,0.9
same,Activity,[14],59.5%
same,TGI,MCF7 [15],Active
same,IC50,[16],694 to 835 nM
same,EC50,[17],255 nM
same,MFC,Aspergillus fumigatus [18],0.125 µg/mL
same,inhibition in vivo at 30 mg/kg,[19],77.7%
same,Activity,Jurkat,Dose-dependent effect
same,IC50,[20],27.4 nM
same,cytotoxicity at 48 h,[21],45%
same,EC50,[22],736 nM
same,IC50,[23],622 nM
same,EC50,[24],175 nM
same,EC50,[25],255 to 420 nM
same,MIC,[26],> 32 µg/mL
same,IC50,[27],165 nM
same,inhibition (INH),[28],65%
same,Ratio IC50,MDA-MB-231,>20 - 100
same,Ratio IC50,PC-3,>20 - 100
CCc1c2c(nc3ccc(OC(=O)N4CCC(N5CCCCC5)CC4)cc13)-c1cc3c(c(=O)n1C2)COC(=O)[C@]3(O)CC [IRINOTECAN],inhibition in vivo at 100 mg/kg,[29],32.7 to 39%
COc1ccc(/C=C\c2cc(OC)c(OC)c(OC)c2)cc1O,inhibition,MCF7 [30],Dose-dependent effect
same,TIME,Tubulin (Homo sapiens) [31],0.66 h
same,Activity,MCF7 [32],Active
same,TIME,Tubulin (Homo sapiens) [33],0.0075 h
same,Activity,MCF7 [34],Active
same,TIME,Tubulin (Homo sapiens) [35],0.0055 h
same,TIME,Tubulin (Homo sapiens) [36],0.00367 h
same,TIME,Tubulin (Homo sapiens) [37],0.0035 h
same,inhibition,Tubulin (Bos taurus),Active
same,Activity,Tubulin (Homo sapiens) [38],1.09 min⁻¹
same,TIME,Tubulin (Homo sapiens) [39],0.653 h
same,Activity,Tubulin (Homo sapiens) [40],2.79 min⁻¹
same,Activity,Tubulin (Homo sapiens) [41],1.52 min⁻¹
same,TIME,Tubulin (Homo sapiens) [42],0.0045 h
same,Activity,Tubulin (Homo sapiens) [43],1.9 min⁻¹
same,Activity,MCF7 [44],Dose-dependent effect
same,TIME,Tubulin (Homo sapiens) [45],0.00917 h
COc1cc2c(c(OC)c1OC)-c1ccc(OC)c(=O)cc1[C@@H](NC(C)=O)CC2 [COLCHICINE],inhibition,MCF7 [30],Dose-dependent effect
same,Activity,MCF7 [32],Active
same,Activity,[46],50%
same,Activity,MCF7 [34],Active
same,MIC,[26],> 128 µg/mL
same,Activity,MCF7 [44],Dose-dependent effect
